“Also recorded” adds a separate entry of the source. Ends that are not written are not given here.
How the values were obtained:
[1] = test system: P. aeruginosa; assay type: cell-based, Pseudomonas aeruginosa; details: P. aeruginosa
Protocol: (§1) Typically, the in vitro antimicrobial activity of antimicrobial agents is tested using standard NCCLS bacterial inhibition assays, or MIC tests (see, National Committee on Clinical Laboratory Standards “Performance Standards for Antimicrobial Susceptibility Testing,” NCCLS Document M100-S5 Vol. 14, No. 16, December 1994; “Methods for dilution antimicrobial susceptibility test for bacteria that grow aerobically-Third Edition,” Approved Standard M7-A3, National Committee for Clinical Standards, Villanova, Pa.).
(§2) Briefly, ˜1×10^5 cfu/mL bacteria were diluted in TH (S. mutans), or Mueller-Hinton (MH) broth (all other organisms) and distributed to 96-well plates. Serially-diluted (2-fold) peptides were then added and the plates incubated at 37° C. for 18-24 h. […] All experiments were conducted 10 times.

[2] = test system: MRSA; test: MIC (broth microdilution); assay type: cell-based, Methicillin-resistant Staphylococcus aureus
Protocol: as §1, §2

[3] = test system: S. mutans; assay type: cell-based, Streptococcus mutans; details: S. mutans; for Organism, effect (morphology, biofilm and growth disruption): test concentration or dose not given here; for Organism, effect: test concentration or dose not given here
Protocol: as §1, §2

[4] = test system: S. pneumoniae; test: Kill or inhibit growth/proliferation; morphology, biofilm and growth disruption (Tables 5, 6); assay type: cell-based, Streptococcus pneumoniae; set-up: key: A: Peptide aggregates; B: Less hyphal formation; Clumps; Diffuse clumps and small polyps; F: Diffuse growth; H: Thin; I: Growth inhibition; Microcolony formation; Rippled; Small polyps; Thick; W: Halo formation on top, microlonies on bottom; note: test concentration or dose not given here
[5] = test system: S. epidermidis; test: as above; assay type: cell-based, Staphylococcus epidermidis; set-up: key: A: Peptide aggregates; B: Less hyphal formation; Clumps; Diffuse clumps and small polyps; F: Diffuse growth; H: Thin; I: Growth inhibition; Microcolony formation; Rippled; Small polyps; Thick; W: Halo formation on top, microlonies on bottom
[6] = test system: P. mirabilis; test: as above; assay type: cell-based; set-up: key: A: Peptide aggregates; B: Less hyphal formation; Clumps; Diffuse clumps and small polyps; F: Diffuse growth; H: Thin; I: Growth inhibition; Microcolony formation; Rippled; Small polyps; Thick; W: Halo formation on top, microlonies on bottom; note: test concentration or dose not given here
[7] = test system: S. mutans; test: as above; assay type: cell-based, Streptococcus mutans; set-up: key: A: Peptide aggregates; B: Less hyphal formation; Clumps; Diffuse clumps and small polyps; F: Diffuse growth; H: Thin; I: Growth inhibition; Microcolony formation; Rippled; Small polyps; Thick; W: Halo formation on top, microlonies on bottom
[8] = test system: E. coli; test: as above; assay type: cell-based, Escherichia coli; set-up: key: A: Peptide aggregates; B: Less hyphal formation; Clumps; Diffuse clumps and small polyps; F: Diffuse growth; H: Thin; I: Growth inhibition; Microcolony formation; Rippled; Small polyps; Thick; W: Halo formation on top, microlonies on bottom; note: test concentration or dose not given here
[9] = test system: C. jeikeium; test: as above; assay type: cell-based, Corynebacterium jeikeium; set-up: key: A: Peptide aggregates; B: Less hyphal formation; Clumps; Diffuse clumps and small polyps; F: Diffuse growth; H: Thin; I: Growth inhibition; Microcolony formation; Rippled; Small polyps; Thick; W: Halo formation on top, microlonies on bottom; note: test concentration or dose not given here
[10] = test system: M. luteus; test: as above; assay type: cell-based, Micrococcus luteus; set-up: key: A: Peptide aggregates; B: Less hyphal formation; Clumps; Diffuse clumps and small polyps; F: Diffuse growth; H: Thin; I: Growth inhibition; Microcolony formation; Rippled; Small polyps; Thick; W: Halo formation on top, microlonies on bottom; note: test concentration or dose not given here
[11] = test system: B. subtilis; test: as above; assay type: cell-based, Bacillus subtilis; set-up: key: A: Peptide aggregates; B: Less hyphal formation; Clumps; Diffuse clumps and small polyps; F: Diffuse growth; H: Thin; I: Growth inhibition; Microcolony formation; Rippled; Small polyps; Thick; W: Halo formation on top, microlonies on bottom
[12] = test system: C. jejuni; test: as above; assay type: cell-based, Campylobacter jejuni; set-up: key: A: Peptide aggregates; B: Less hyphal formation; Clumps; Diffuse clumps and small polyps; F: Diffuse growth; H: Thin; I: Growth inhibition; Microcolony formation; Rippled; Small polyps; Thick; W: Halo formation on top, microlonies on bottom; note: test concentration or dose not given here
[13] = test system: microorganisms; test: Peptides having multiple activities (targeting/binding, antimicrobial, growth or phenotype altering)
Source text: In certain embodiments, peptides described herein can have multiple activities. Thus for example, a peptide can have both binding/targeting activity and antimicrobial activity. Such peptides can be used, e.g., in a chimeric construct, for any or all of these properties. Thus, for example, a peptide designated “B” in Table 8 can be used as a targeting peptide. If it is also designated G or M it can also be used for antimicrobial activity.

[14] = test system: MRSA; test: Kill or inhibit growth/proliferation; morphology, biofilm and growth disruption (Tables 5, 6); assay type: cell-based, Methicillin-resistant Staphylococcus aureus; set-up: key: A: Peptide aggregates; B: Less hyphal formation; Clumps; Diffuse clumps and small polyps; F: Diffuse growth; H: Thin; I: Growth inhibition; Microcolony formation; Rippled; Small polyps; Thick; W: Halo formation on top, microlonies on bottom; note: test concentration or dose not given here
[15] = test system: S. epidermidis; assay type: cell-based, Staphylococcus epidermidis; details: S. epidermidis; for Organism, effect (morphology, biofilm and growth disruption): test concentration or dose not given here; for Organism, effect: test concentration or dose not given here
Protocol: as §1, §2

[16] = test system: B. subtilis; test: MIC (broth microdilution); assay type: cell-based, Bacillus subtilis
Protocol: as §1, §2

[17] = test system: microorganisms (e.g., bacteria, yeasts, fungi); test: Targeting peptide binding to target microorganisms (Table 3); details: preferably 1x PBS; for Target(s): microorganism(s) the targeting peptide binds
[18] = test system: T. rubrum; test: MIC (broth microdilution); assay type: cell-based, Trichophyton rubrum
Protocol: as §1, §2

[19] = test system: E. faecalis; test: Kill or inhibit growth/proliferation; morphology, biofilm and growth disruption (Tables 5, 6); assay type: cell-based, Enterococcus faecalis; set-up: key: A: Peptide aggregates; B: Less hyphal formation; Clumps; Diffuse clumps and small polyps; F: Diffuse growth; H: Thin; I: Growth inhibition; Microcolony formation; Rippled; Small polyps; Thick; W: Halo formation on top, microlonies on bottom; note: test concentration or dose not given here
[20] = test system: A. baumannii; test: MIC (broth microdilution); assay type: cell-based, Acinetobacter baumannii
Protocol: as §1, §2

[21] = test system: P. aeruginosa; test: Kill or inhibit growth/proliferation; morphology, biofilm and growth disruption (Tables 5, 6); assay type: cell-based, Pseudomonas aeruginosa; set-up: key: A: Peptide aggregates; B: Less hyphal formation; Clumps; Diffuse clumps and small polyps; F: Diffuse growth; H: Thin; I: Growth inhibition; Microcolony formation; Rippled; Small polyps; Thick; W: Halo formation on top, microlonies on bottom; note: test concentration or dose not given here
[22] = test system: A. niger; test: MIC (broth microdilution); assay type: cell-based, Aspergillus niger
Protocol: as §1, §2

[23] = binding in aqueous buffers depending on peptide solubility
Throughout, for Organism, effect: test concentration or dose not given here.

Row | Substance | Organism, effect [4] | Organism, effect [5] | Organism, effect [6] | Organism, effect [7] | Organism, effect [8] | Organism, effect [10] | Activities [13] | Organism, effect [14] | also measured
1 | FIRKFLQKLHL [Peptide K-16] |  |  |  |  |  |  |  |  | MIC [1]: P. aeruginosa, 12.5 μM; MIC [2]: MRSA , 25 μM; MIC [3]: S. mutans, 8 μM
2 | MIHLTKQNTMEALHFIKQFYDMFFILNFNV [PF-040] | S. pneumoniae (D) | S. epidermidis (D) | P. mirabilis (C) | S. mutans (F) | E. coli (C) | M. luteus (D) | G B | MRSA (D) | Organism, effect [9]: C. jeikeium (D); Organism, effect [11]: B. subtilis (D); Organism, effect [12]: C. jejuni (D)
3 | MIRIRSPTKKKLNRNSISDWKSNTSGRFFY [PF-283] |  | S. epidermidis (H) |  |  |  |  | G B M |  | MIC [15]: S. epidermidis, 50 μM; MIC [16]: B. subtilis, 50 μM; Target(s) [17, 23]: B. subtilis; also recorded: B. fragilis; also recorded: C. difficile; MIC [18]: T. rubrum, 50 μM; Organism, effect [11]: B. subtilis (H)
4 | PF-578: peptide having multiple activities (chain 1 QKANLRIGFTYTSDSNVCNLTFALLGSK; chain 2 QKANLRIGFTYTSDSNVCNLTFALLGSK; Peptide with targeting and/or antimicrobial activity) | S. pneumoniae (D) | S. epidermidis (D) | P. mirabilis (C) | S. mutans (D) | E. coli (C) | M. luteus (C) | G B | MRSA (C) | 
5 | PF-612: peptide having multiple activities (GTTLKYGLERQLKIDIHPEITIINLNGGADEFAKL; Peptide with targeting and/or antimicrobial activity) | S. pneumoniae (C) | S. epidermidis (C) | P. mirabilis (C) | S. mutans (F) | E. coli (C) | M. luteus (A) | G B | MRSA (C) | 
6 | PF-624 (VFLLDSYCFVKINL; Peptide with targeting and/or antimicrobial activity) | S. pneumoniae (D) | S. epidermidis (D) | P. mirabilis (C) | S. mutans (D) | E. coli (C) | M. luteus (C) |  | MRSA (C) | 
7 | PF-634: peptide having multiple activities (chain 1 MPKARPVNHNKKKSKITIKSNFTLFYMFNP; chain 2 MPKARPVNHNKKKSKITIKSNFTLFYMFNP; Peptide with targeting and/or antimicrobial activity) | S. pneumoniae (D) | S. epidermidis (D) | P. mirabilis (C) | S. mutans (D) | E. coli (C) | M. luteus (C) | G B | MRSA (D) | 
8 | PF-741: peptide having multiple activities (AKREDTVAAQIGANILNLIQ; Peptide with targeting and/or antimicrobial activity) |  |  |  |  |  |  | G B |  | Organism, effect (morphology, biofilm and growth disruption) [4]: S. pneumoniae (D); Organism, effect (morphology, biofilm and growth disruption) [5]: S. epidermidis (C); Organism, effect (morphology, biofilm and growth disruption) [6]: P. mirabilis (C); Organism, effect (morphology, biofilm and growth disruption) [7]: S. mutans (D); Organism, effect (morphology, biofilm and growth disruption) [8]: E. coli (C); Target(s) (microorganisms bound by the targeting peptide) ([17]; peptide binding in aqueous buffers varied by peptide solubility): S. epidermidis and M. luteus and P. mirabilis and P. aeruginosa and C. albicans and MRSA and S. pneumoniae and E. faecalis; Organism, effect (morphology, biofilm and growth disruption) [10]: M. luteus (C); Organism, effect (morphology, biofilm and growth disruption) [14]: MRSA (C)
9 | PF-770: peptide having multiple activities (GVGIGFIMMGVVGYAVKLVHIPIRYLIV; Peptide with targeting and/or antimicrobial activity) |  |  |  |  |  |  | G B |  | Organism, effect (morphology, biofilm and growth disruption) [4]: S. pneumoniae (C); Organism, effect (morphology, biofilm and growth disruption) [5]: S. epidermidis (D); Organism, effect (morphology, biofilm and growth disruption) [6]: P. mirabilis (C); Organism, effect (morphology, biofilm and growth disruption) [7]: S. mutans (D); Organism, effect (morphology, biofilm and growth disruption) [8]: E. coli (C); Organism, effect (morphology, biofilm and growth disruption) [10]: M. luteus (C); Organism, effect (morphology, biofilm and growth disruption) [14]: MRSA (D)
10 | SKFKVLRKIIIKEYKGELMLSIQKQR [PF-530] | S. pneumoniae (R) | S. epidermidis (H) |  |  | E. coli (R) |  | G M | MRSA (C) | Organism, effect [19]: E. faecalis (C); MIC [20]: A. baumannii, 25 μM
11 | VLPFPAIPLSRRRACVAAPRPRSRQRAS [PF-168] |  |  |  |  |  |  | G B M | MRSA (I) | Target(s) [17, 23]: S. epidermidis and M. luteus and E. coli and C. albicans and MRSA and C. jeikeium and C. jejuni; MIC [18]: T. rubrum, 50 μM; Organism, effect [21]: P. aeruginosa (H); MIC [22]: A. niger, 50 μM; MIC [2]: MRSA , 50 μM
12 | WSRVPGHSDTGWKVWHRW-NH2 [PF-547] |  | S. epidermidis (R) |  |  |  |  | G B M | MRSA (M) | MIC [16]: B. subtilis, 25 μM; Organism, effect [19]: E. faecalis (R); Target(s) ([17]; peptide binding conducted in aqueous buffers varied by peptide solubility): S. epidermidis and E. coli and P. aeruginosa and C. albicans and MRSA and S. pneumoniae and E. faecalis; MIC [18]: T. rubrum, 25 μM; Organism, effect [11]: B. subtilis (I); MIC [3]: S. mutans, 12.5 μM

— US20110039762A1, “TARGETED ANTIMICROBIAL MOIETIES” (C3 JIAN, INC., priority 2009, published 2011)
